Assays:
[1] = target: T1, acyl coenzyme-A:cholesterol-O-acyl transferase (ACAT;EC 2.3.1.26) (Rattus norvegicus, UniProt Q7TQM4); assay: In vitro ACAT inhibition in liver microsomes of cholesterol-fed rats, radiolabelled oleoyl-CoA; assay type: biochemical; conditions: 1μg/ml; microsomes from livers of rats fed 0.5% w/w cholesterol and 0.25% w/w cholic acid for 7 days; read-out: In-vitro % Inhibition (degree of ACAT inhibition)
T1 construct: microsomes, prepared from the livers of rats; from tissue; host or cells: liver microsomes of rats fed 0.5% w/w cholesterol and 0.25% w/w cholic acid for 7 days
T1 sequence (Q7TQM4 1-524): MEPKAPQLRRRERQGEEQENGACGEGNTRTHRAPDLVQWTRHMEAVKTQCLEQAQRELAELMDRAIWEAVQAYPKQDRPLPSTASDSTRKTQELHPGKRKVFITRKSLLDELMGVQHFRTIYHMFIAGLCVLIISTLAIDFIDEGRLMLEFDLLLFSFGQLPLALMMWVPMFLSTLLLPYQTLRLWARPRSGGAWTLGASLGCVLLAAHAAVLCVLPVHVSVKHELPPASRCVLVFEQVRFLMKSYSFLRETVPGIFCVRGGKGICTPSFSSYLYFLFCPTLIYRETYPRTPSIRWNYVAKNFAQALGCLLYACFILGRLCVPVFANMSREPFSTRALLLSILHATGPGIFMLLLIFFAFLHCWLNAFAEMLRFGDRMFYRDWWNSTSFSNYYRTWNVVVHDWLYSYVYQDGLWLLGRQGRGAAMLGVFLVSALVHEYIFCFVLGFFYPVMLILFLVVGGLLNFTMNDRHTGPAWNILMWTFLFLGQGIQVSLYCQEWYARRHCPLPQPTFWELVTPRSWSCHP

rats = assay: In vivo inhibition of increase in plasma cholesterol level in rats fed a cholesterol supplemented diet; design: species or system rat; conditions: 0.03% w/w test compound in cholesterol supplemented diet, after 3 days, 100% or more = similar to control rats on normal diet
Protocol: In assays performed in vitro microsomes, prepared from the livers of rats fed a diet supplemented with 0.5% w/w cholesterol and 0.25% w/w cholic acid for 7 days, were incubated with radiolabelled oleoyl-CoA in the presence of compounds according to the invention at a concentration of 1μg/ml.
Values of 100% or more indicate plasma cholesterol concentrations that were similar to those of control rats fed on a normal (non-supplemented) diet.

SMILES	inhibition at 1 µg/mL [1]	In-vivo % Reduction (inhibition of increase in plasma cholesterol level relative to control animals) (rats)
CC1CC(C)OC(c2nc(-c3ccccc3)c(-c3ccccc3)[nH]2)O1 (racemic) [Compound C, (±)-cis/trans-2-(4,6-dimethyl-1,3-dioxan-2-yl)-4,5-diphenylimidazole]	74%	
c1ccc(-c2nc(C3OCCCO3)[nH]c2-c2ccccc2)cc1 [Compound A, 2-(1,3-dioxan-2-yl)-4,5-diphenylimidazole]	94%	86%
